Measured values published in US12129237B2, “Substituted diaminocarboxamide and diaminocarbonitrile pyrimidines, compositions thereof, and methods of treatment therewith” (SIGNAL PHARMACEUTICALS, LLC, priority 2011, dated 2024).

The compounds below were run against T1, JNK1 (Homo sapiens, UniProt P45983) (assay: JNK1 biochemical assays (one or more of: time resolved fluorescence, Z'-LYTE Cascade, radioactive)). Details: Table 2; JNK1 IC50 activity level; read-out: Act. Level.
T1 construct: purchased Carna Biosciences
T1 sequence (P45983 whole entry): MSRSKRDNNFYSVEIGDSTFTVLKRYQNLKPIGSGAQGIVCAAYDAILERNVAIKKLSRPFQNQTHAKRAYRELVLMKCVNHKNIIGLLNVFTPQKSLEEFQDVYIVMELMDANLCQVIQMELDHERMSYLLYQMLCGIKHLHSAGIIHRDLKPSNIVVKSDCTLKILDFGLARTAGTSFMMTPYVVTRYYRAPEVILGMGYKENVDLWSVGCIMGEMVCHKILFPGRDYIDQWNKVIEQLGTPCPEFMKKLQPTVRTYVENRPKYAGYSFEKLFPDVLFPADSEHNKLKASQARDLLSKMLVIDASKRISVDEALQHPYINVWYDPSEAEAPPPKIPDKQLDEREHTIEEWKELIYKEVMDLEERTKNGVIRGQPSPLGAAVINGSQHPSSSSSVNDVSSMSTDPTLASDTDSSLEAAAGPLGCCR

Row | IC50 [nM] | Compound
1 | < 200 | COc1ccc(C)c(Nc2ncc(C(N)=O)c(Nc3ccccc3)n2)c1 [Example B-34, 2-(5-methoxy-2-methylphenylamino)-4-(phenylamino)pyrimidine-5-carboxamide]
2 | 200 to 800 | NC(=O)c1cnc(NCCc2cccs2)nc1Nc1ccccc1 [Example B-42, 4-(phenylamino)-2-(2-(thiophen-2-yl)ethylamino)pyrimidine-5-carboxamide]
3 | < 200 | Cc1cccc(Nc2ncc(C(N)=O)c(Nc3ccccc3)n2)c1 [Example B-28, 4-(phenylamino)-2-(m-tolylamino)pyrimidine-5-carboxamide]
4 | 200 to 800 | NC(=O)c1cnc(NCCc2ccccc2)nc1Nc1ccccc1 [Example B-71, 2-(phenethylamino)-4-(phenylamino)pyrimidine-5-carboxamide]
5 | 800 to 1000 | NC(=O)c1cnc(NCc2cc(F)cc(F)c2)nc1Nc1ccccc1 [Example B-52, 2-(3,5-difluorobenzylamino)-4-(phenylamino)pyrimidine-5-carboxamide]

Same assay, conditions: Table 3; JNK1 IC50 activity level; read-out: Act. Level

Row | IC50 [nM] | Compound
6 | < 200 | N#Cc1cnc(NC2CCCCC2)nc1N[C@@H]1CCC[C@H](O)C1 [Example C-10, 2-(cyclohexylamino)-4-((1R,3S)-3-hydroxycyclohexylamino) pyrimidine-5-carbonitrile]
7 | 1000 to 10000 | CCO[C@H]1CC[C@H](Nc2ncc(C#N)c(NC3CCOCC3)n2)CC1 [Example C-21, 2-((1r,4r)-4-ethoxycyclohexylamino)-4-(tetrahydro-2H-pyran-4-ylamino)pyrimidine-5-carbonitrile]

Same assay, conditions: one or more of the JNK1 biochemical assays; read-out: Act. Level (JNK1 IC50 activity level)

Row | IC50 [nM] | Compound
8 | < 200 | CC(C)(Nc1nc(N[C@H]2CC[C@H](OC(F)F)CC2)ncc1C(N)=O)C1CC1 [Example 481, 4-(2-cyclopropylpropan-2-ylamino)-2-((1r,4r)-4-(difluoromethoxy)cyclohexylamino)pyrimidine-5-carboxamide]
9 | < 200 | CC1(C)CCC(Nc2nc(NC3CCC3)ncc2C(N)=O)CC1O (stereo not drawn) [Example 428, 2-(cyclobutylamino)-4-(3-hydroxy-4,4-dimethylcyclohexylamino)pyrimidine-5-carboxamide]
10 | 1000 to 10000 | CO[C@H]1CC[C@H](Nc2ncc(C(N)=O)c(N[C@H](C)C3CCC3)n2)CC1 [Example 296, 4-((R)-1-cyclobutylethylamino)-2-((1r,4R)-4-methoxycyclohexylamino)pyrimidine-5-carboxamide]
11 | < 200 | C[C@H](Nc1nc(N[C@H]2CC[C@H](O)CC2)ncc1C(N)=O)C1CC1 [Example 263, 4-((S)-1-cyclopropylethylamino)-2-((1r,4S)-4-hydroxycyclohexylamino)pyrimidine-5-carboxamide]
12 | < 200 | COC12CCC(Nc3ncc(C(N)=O)c(N[C@@H]4CCC[C@H](O)C4)n3)(CC1)CC2 [Example 231, 4-((1R,3S)-3-hydroxycyclohexylamino)-2-(4-methoxybicyclo[2.2.2]octan-1-ylamino)pyrimidine-5-carboxamide]
13 | < 200 | CCO[C@H]1CC[C@H](Nc2ncc(C(N)=O)c(N[C@H]3C[C@@H](C)C3)n2)CC1 [Example 326, 2-((1r,4r)-4-ethoxycyclohexylamino)-4-((1s,3s)-3-methylcyclobutylamino)pyrimidine-5-carboxamide]
14 | < 200 | C[C@@H](Nc1nc(N[C@H]2CC[C@H](O)CC2)ncc1C(N)=O)C(C)(C)C [Example 281, 4-((R)-3,3-dimethylbutan-2-ylamino)-2-((1r,4R)-4-hydroxycyclohexylamino)pyrimidine-5-carboxamide]
15 | < 200 | CC(=O)N[C@H]1CC[C@H](Nc2ncc(C(N)=O)c(NC(C)C)n2)CC1 [Example 203, 2-((1r,4r)-4-acetamidocyclohexylamino)-4-(isopropylamino)pyrimidine-5-carboxamide]
16 | < 200 | NC(=O)c1cnc(N[C@H]2CC[C@H](OC3CC3)CC2)nc1N[C@@H]1CCC[C@H](O)C1 [Example 205, 2-((1r,4R)-4-cyclopropoxycyclohexylamino)-4-((1R,3S)-3-hydroxycyclohexylamino)pyrimidine-5-carboxamide]
17 | < 200 | CC(C)(C)Nc1nc(NC2CCCC(O)CC2)ncc1C(N)=O (stereo not drawn) [Example 250, 4-(tert-butylamino)-2-(4-hydroxycycloheptylamino)pyrimidine-5-carboxamide]
18 | < 200 | CCO[C@H]1CC[C@H](Nc2ncc(C(N)=O)c(N[C@H](C)C(C)C)n2)CC1 [Example 290, 2-((1r,4R)-4-ethoxycyclohexylamino)-4-((R)-3-methylbutan-2-ylamino)pyrimidine-5-carboxamide]
19 | < 200 | CO[C@H]1CC[C@H](Nc2ncc(C(N)=O)c(NC(C)(C)C(C)(C)C)n2)CC1 [Example 333, 2-((1r,4r)-4-methoxycyclohexylamino)-4-(2,3,3-trimethylbutan-2-ylamino)pyrimidine-5-carboxamide]
20 | < 200 | CC(C)(C)Nc1nc(N[C@H]2CCCC[C@@H](O)C2)ncc1C(N)=O [Example 388, 4-(tert-butylamino)-2-((1S,3R)-3-hydroxycycloheptylamino)pyrimidine-5-carboxamide]
21 | < 200 | CC(C)CNc1ncc(C(N)=O)c(N[C@@H]2CCC[C@H](O)C2)n1 [Example 495, 4-((1R,3S)-3-hydroxycyclohexylamino)-2-(isobutylamino)pyrimidine-5-carboxamide]
22 | < 200 | CC1CCC1Nc1nc(N[C@H]2CC[C@H](O)CC2)ncc1C(N)=O (stereo partly drawn) [Example 246, 2-((1r,4r)-4-hydroxycyclohexylamino)-4-(2-methylcyclobutylamino)pyrimidine-5-carboxamide]
23 | < 200 | CC(C)(C)Nc1nc(N[C@@H]2CCC[C@@H](O)C2)ncc1C(N)=O [Example 299, 4-(tert-butylamino)-2-((1R,3R)-3-hydroxycyclohexylamino)pyrimidine-5-carboxamide]
24 | < 200 | NC(=O)c1cnc(NC2CCCC2)nc1N[C@@H]1CCC[C@H](O)C1 [Example 439, 2-(cyclopentylamino)-4-((1R,3S)-3-hydroxycyclohexylamino)pyrimidine-5-carboxamide]
25 | < 200 | C[C@@H]1CC[C@@H](Nc2nc(NC3(C)CCC3)ncc2C(N)=O)C[C@H]1O [Example 287, 4-((1R,3R,4R)-3-hydroxy-4-methylcyclohexylamino)-2-(1-methylcyclobutylamino)pyrimidine-5-carboxamide]
26 | < 200 | CC(C)(C)Nc1nc(NC23CCC(F)(CC2)CC3)ncc1C(N)=O [Example 289, 4-(tert-butylamino)-2-(4-fluorobicyclo[2.2.2]octan-1-ylamino)pyrimidine-5-carboxamide]
27 | < 200 | NC(=O)c1cnc(N[C@H]2CC[C@H](O)CC2)nc1NC12CCC(C1)C2 [Example 477, 4-(bicyclo[2.1.1]hexan-1-ylamino)-2-((1r,4r)-4-hydroxycyclohexylamino)pyrimidine-5-carboxamide]
28 | 200 to 800 | CNC(=O)c1cnc(N[C@H]2CC[C@H](OC)CC2)nc1N[C@@H]1CCC[C@H](O)C1 [Example 206, 4-((1R,3S)-3-hydroxycyclohexylamino)-2-((1r,4R)-4-methoxycyclohexylamino)-N-methylpyrimidine-5-carboxamide]
29 | < 200 | CC(C)(C)Nc1nc(N[C@H]2CC[C@@](C)(O)CC2)ncc1C(N)=O [Example 371, 4-(tert-butylamino)-2-((1s,4s)-4-hydroxy-4-methylcyclohexylamino)pyrimidine-5-carboxamide]
30 | < 200 | CCO[C@H]1CC[C@H](Nc2ncc(C(N)=O)c(NC3(C)CCC3)n2)CC1 [Example 401, 2-((1r,4r)-4-ethoxycyclohexylamino)-4-(1-methylcyclobutylamino)pyrimidine-5-carboxamide]
31 | < 200 | CCC1(Nc2nc(N[C@H]3CC[C@H](OC4CC4)CC3)ncc2C(N)=O)CCCC1 [Example 463, 2-((1r,4r)-4-cyclopropoxycyclohexylamino)-4-(1-ethylcyclopentylamino)pyrimidine-5-carboxamide]

Same assay, conditions: tested in one or more of the JNK1 biochemical assays; read-out: Act. Level (JNK1 biochemical assay IC50 activity level)

Row | IC50 [nM] | Compound
32 | 200 to 800 | CC(C)Nc1nc(NC2CCC3(CC2)OCCO3)ncc1C(N)=O [Example A-11, 2-(1,4-dioxaspiro[4.5]decan-8-ylamino)-4-(isopropylamino)pyrimidine-5-carboxamide]
33 | < 200 | CO[C@H]1CC[C@H](Nc2ncc(C(N)=O)c(N[C@H]3CC[C@@](C)(O)CC3)n2)CC1 [Example A-69, 4-((1s,4s)-4-hydroxy-4-methylcyclohexylamino)-2-((1r,4r)-4-methoxycyclohexylamino)pyrimidine-5-carboxamide]
34 | 200 to 800 | CO[C@H]1CC[C@H](Nc2ncc(C(N)=O)c(N[C@H]3CCCC[C@](C)(O)C3)n2)CC1 [Example A-184, 4-((1S,3S)-3-hydroxy-3-methylcycloheptylamino)-2-((1r,4S)-4-methoxycyclohexylamino)pyrimidine-5-carboxamide]
35 | < 200 | CO[C@H]1CC[C@H](Nc2ncc(C(N)=O)c(N[C@H]3CC[C@@H](O)CC3)n2)CC1 [Example A-101, 4-((1s,4s)-4-hydroxycyclohexylamino)-2-((1r,4r)-4-methoxycyclohexylamino)pyrimidine-5-carboxamide]
36 | < 200 | CCO[C@H]1CC[C@@H](Nc2nc(N[C@@H]3CC[C@@H](O)C3)ncc2C(N)=O)CC1 [Example A-95, 4-((1s,4S)-4-ethoxycyclohexylamino)-2-((1R,3R)-3-hydroxycyclopentylamino)pyrimidine-5-carboxamide]
37 | < 200 | NC(=O)c1cnc(NC2CCOCC2)nc1N[C@@H]1CCCC[C@H](O)C1 [Example A-166, 4-((1R,3S)-3-hydroxycycloheptylamino)-2-(tetrahydro-2H-pyran-4-ylamino)pyrimidine-5-carboxamide]
38 | < 200 | NC(=O)c1cnc(N[C@H]2CC[C@H](O)CC2)nc1NC1CC1 [Example A-175, 4-(cyclopropylamino)-2-((1r,4r)-4-hydroxycyclohexylamino)pyrimidine-5-carboxamide]
39 | 200 to 800 | CCC(=O)N[C@H]1CC[C@@H](Nc2nc(NC3CCCC3)ncc2C(N)=O)CC1 [Example A-129, 2-(cyclopentylamino)-4-((1s,4s)-4-propionamidocyclohexylamino)pyrimidine-5-carboxamide]
